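Results reflect a 48-hour exposure of cells in 96-well plates to compound at five concentrations. The concentration for 50% growth inhibition is given as GI50. TGI denotes the concentration required for complete inhibition of growth.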
Tests used:
Experiment in all cases: DTP human tumour cell line panel, 48 h
786-0 renal = system: 786-0 renal
A498 renal = system: A498 renal
A549 NSCLC = system: A549 NSCLC
ACHN renal = system: ACHN renal
BT-549 breast = system: BT-549 breast
CAKI-1 renal = system: CAKI-1 renal
COLO 205 colon = system: COLO 205 colon
DU-145 prostate = system: DU-145 prostate
EKVX NSCLC = system: EKVX NSCLC
HCC-2998 colon = system: HCC-2998 colon
HCT-116 colon = system: HCT-116 colon
HCT-15 colon = system: HCT-15 colon
HOP-62 NSCLC = system: HOP-62 NSCLC
HOP-92 NSCLC = system: HOP-92 NSCLC
HT29 colon = system: HT29 colon
K-562 leukemia = system: K-562 leukemia
KM12 colon = system: KM12 colon
LOX IMVI melanoma = system: LOX IMVI melanoma
M14 melanoma = system: M14 melanoma
MALME-3M melanoma = system: MALME-3M melanoma
MCF7 breast = system: MCF7 breast
MDA-MB-231 breast = system: MDA-MB-231 breast
MDA-MB-435 = system: MDA-MB-435
MDA-N = system: MDA-N
MOLT-4 leukemia = system: MOLT-4 leukemia
NCI-H226 lung = system: NCI-H226 lung
NCI-H23 lung = system: NCI-H23 lung
NCI-H460 lung = system: NCI-H460 lung
NCI-H522 lung = system: NCI-H522 lung
NCI/ADR-RES ovarian = system: NCI/ADR-RES ovarian
OVCAR-3 ovarian = system: OVCAR-3 ovarian
OVCAR-4 ovarian = system: OVCAR-4 ovarian
OVCAR-5 ovarian = system: OVCAR-5 ovarian
OVCAR-8 ovarian = system: OVCAR-8 ovarian
PC-3 prostate = system: PC-3 prostate
RXF 393 renal = system: RXF 393 renal
SF-268 CNS = system: SF-268 CNS
SF-295 CNS = system: SF-295 CNS
SF-539 CNS = system: SF-539 CNS
SK-MEL-2 melanoma = system: SK-MEL-2 melanoma
SK-MEL-28 melanoma = system: SK-MEL-28 melanoma
SK-MEL-5 melanoma = system: SK-MEL-5 melanoma
SK-OV-3 ovarian = system: SK-OV-3 ovarian
SN12C renal = system: SN12C renal
SNB-19 CNS = system: SNB-19 CNS
SNB-75 CNS = system: SNB-75 CNS
SW-620 colon = system: SW-620 colon
T-47D breast = system: T-47D breast
TK-10 renal = system: TK-10 renal
U251 CNS = system: U251 CNS
UACC-257 melanoma = system: UACC-257 melanoma
UACC-62 melanoma = system: UACC-62 melanoma
UO-31 renal = system: UO-31 renal
CCRF-CEM leukemia = system: CCRF-CEM leukemia
HL-60(TB) leukemia = system: HL-60(TB) leukemia
HS 578T breast = system: HS 578T breast
IGROV1 ovarian = system: IGROV1 ovarian
RPMI-8226 leukemia = system: RPMI-8226 leukemia
SR leukemia = system: SR leukemia

## CCOC(=O)CCC(NC(=O)c1ccc(NCc2ccc3nc(-c4ccccc4)c(Cl)nc3c2)c2ccccc12)C(=O)OCC (centres undefined)
786-0 renal
  TGI: > 100 µM
A498 renal
  TGI: > 100 µM
A549 NSCLC
  TGI: > 100 µM
ACHN renal
  TGI: > 100 µM
BT-549 breast
  TGI: > 100 µM
CAKI-1 renal
  TGI: > 100 µM
COLO 205 colon
  TGI: > 100 µM
DU-145 prostate
  TGI: > 100 µM
EKVX NSCLC
  TGI: > 100 µM
HCC-2998 colon
  TGI: > 100 µM
HCT-116 colon
  TGI: > 100 µM
HCT-15 colon
  TGI: > 100 µM
HOP-62 NSCLC
  TGI: > 100 µM
HOP-92 NSCLC
  TGI: > 100 µM
HT29 colon
  TGI: > 100 µM
K-562 leukemia
  TGI: > 100 µM
KM12 colon
  TGI: > 100 µM
LOX IMVI melanoma
  TGI: > 100 µM
M14 melanoma
  TGI: > 100 µM
MALME-3M melanoma
  TGI: > 100 µM
MCF7 breast
  TGI: > 100 µM
MDA-MB-231 breast
  TGI: > 100 µM
MDA-MB-435
  TGI: > 100 µM
MDA-N
  TGI: > 100 µM
MOLT-4 leukemia
  TGI: 27.9 µM
NCI-H226 lung
  TGI: > 100 µM
NCI-H23 lung
  TGI: > 100 µM
NCI-H460 lung
  TGI: > 100 µM
NCI-H522 lung
  TGI: > 100 µM
NCI/ADR-RES ovarian
  TGI: > 100 µM
OVCAR-3 ovarian
  TGI: > 100 µM
OVCAR-4 ovarian
  TGI: > 100 µM
OVCAR-5 ovarian
  TGI: > 100 µM
OVCAR-8 ovarian
  TGI: > 100 µM
PC-3 prostate
  TGI: > 100 µM
RXF 393 renal
  TGI: > 100 µM
SF-268 CNS
  TGI: > 100 µM
SF-295 CNS
  TGI: > 100 µM
SF-539 CNS
  TGI: > 100 µM
SK-MEL-2 melanoma
  TGI: > 100 µM
SK-MEL-28 melanoma
  TGI: > 100 µM
SK-MEL-5 melanoma
  TGI: > 100 µM
SK-OV-3 ovarian
  TGI: > 100 µM
SN12C renal
  TGI: > 100 µM
SNB-19 CNS
  TGI: > 100 µM
SNB-75 CNS
  TGI: > 100 µM
SW-620 colon
  TGI: > 100 µM
T-47D breast
  TGI: > 100 µM
TK-10 renal
  TGI: > 100 µM
U251 CNS
  TGI: > 100 µM
UACC-257 melanoma
  TGI: 61.5 µM
UACC-62 melanoma
  TGI: > 100 µM
UO-31 renal
  TGI: > 100 µM

## Cc1ccccc1NC(=O)c1sc2nc3c(cc2c1N)C(=O)CCC3
786-0 renal
  GI50: 9.02 µM
  TGI: > 100 µM
A498 renal
  GI50: 1.16 µM
  TGI: 4.65 µM
A549 NSCLC
  GI50: 2.22 µM
  TGI: > 100 µM
ACHN renal
  GI50: 15.8 µM
  TGI: > 100 µM
BT-549 breast
  GI50: 6.58 µM
  TGI: > 100 µM
CAKI-1 renal
  GI50: 6.74 µM
  TGI: > 100 µM
CCRF-CEM leukemia
  GI50: 2.55 µM
  TGI: > 100 µM
COLO 205 colon
  GI50: 2.13 µM
  TGI: 6.69 µM
DU-145 prostate
  GI50: 2.7 µM
  TGI: 8.41 µM
EKVX NSCLC
  GI50: 6.82 µM
  TGI: > 100 µM
HCC-2998 colon
  GI50: 3.21 µM
  TGI: > 100 µM
HCT-116 colon
  GI50: 3.56 µM
  TGI: > 100 µM
HCT-15 colon
  GI50: 1.64 µM
  TGI: > 100 µM
HL-60(TB) leukemia
  GI50: 3.1 µM
  TGI: > 100 µM
HOP-62 NSCLC
  GI50: 7.28 µM
  TGI: > 100 µM
HOP-92 NSCLC
  GI50: > 100 µM
  TGI: > 100 µM
HS 578T breast
  GI50: 1.71 µM
  TGI: 5.56 µM
HT29 colon
  GI50: 1.59 µM
  TGI: 23.7 µM
IGROV1 ovarian
  GI50: 5.26 µM
  TGI: > 100 µM
K-562 leukemia
  GI50: 0.771 µM
  TGI: > 100 µM
KM12 colon
  GI50: 1.69 µM
  TGI: > 100 µM
LOX IMVI melanoma
  GI50: 6.71 µM
  TGI: > 100 µM
M14 melanoma
  GI50: 2.27 µM
  TGI: > 100 µM
MALME-3M melanoma
  GI50: 3.54 µM
  TGI: > 100 µM
MCF7 breast
  GI50: 1.58 µM
  TGI: > 100 µM
MDA-MB-231 breast
  GI50: 3.98 µM
  TGI: > 100 µM
MDA-MB-435
  GI50: 0.331 µM
  TGI: 1.98 µM
MOLT-4 leukemia
  GI50: 11.3 µM
  TGI: > 100 µM
NCI-H226 lung
  GI50: 37.6 µM
  TGI: > 100 µM
NCI-H23 lung
  GI50: 4.62 µM
  TGI: > 100 µM
NCI-H460 lung
  GI50: 2.63 µM
  TGI: 10.6 µM
NCI-H522 lung
  GI50: 0.896 µM
  TGI: 3.5 µM
NCI/ADR-RES ovarian
  GI50: 2.23 µM
  TGI: > 100 µM
OVCAR-3 ovarian
  GI50: 1.76 µM
  TGI: 4.45 µM
OVCAR-4 ovarian
  GI50: 6.21 µM
  TGI: > 100 µM
OVCAR-5 ovarian
  GI50: 6.82 µM
  TGI: > 100 µM
OVCAR-8 ovarian
  GI50: 4.89 µM
  TGI: > 100 µM
PC-3 prostate
  GI50: 3.13 µM
  TGI: > 100 µM
RPMI-8226 leukemia
  GI50: 5.29 µM
  TGI: > 100 µM
RXF 393 renal
  GI50: 1.62 µM
  TGI: 5.65 µM
SF-268 CNS
  GI50: 8.51 µM
  TGI: > 100 µM
SF-295 CNS
  GI50: 1.33 µM
  TGI: > 100 µM
SF-539 CNS
  GI50: 2.13 µM
  TGI: 8.1 µM
SK-MEL-2 melanoma
  GI50: 0.548 µM
  TGI: > 100 µM
SK-MEL-28 melanoma
  GI50: 1.83 µM
  TGI: > 100 µM
SK-MEL-5 melanoma
  GI50: 0.613 µM
  TGI: 11.6 µM
SK-OV-3 ovarian
  GI50: 2.72 µM
  TGI: > 100 µM
SN12C renal
  GI50: 5.53 µM
  TGI: > 100 µM
SNB-19 CNS
  GI50: 3.1 µM
  TGI: > 100 µM
SNB-75 CNS
  GI50: 1.66 µM
  TGI: > 100 µM
SR leukemia
  GI50: 2.93 µM
  TGI: > 100 µM
SW-620 colon
  GI50: 1.83 µM
  TGI: > 100 µM
T-47D breast
  GI50: 4.81 µM
  TGI: > 100 µM
TK-10 renal
  GI50: 4.05 µM
  TGI: > 100 µM
U251 CNS
  GI50: 1.67 µM
  TGI: 21.4 µM
UACC-257 melanoma
  GI50: 1.97 µM
  TGI: > 100 µM
UACC-62 melanoma
  GI50: 0.999 µM
  TGI: > 100 µM
UO-31 renal
  GI50: 34.4 µM
  TGI: > 100 µM
